One test has as its target T1, human Cot/Tpl2 kinase (Homo sapiens, UniProt P41279).
T1 construct: human Cot/Tpl2 kinase construct encoding residues 30-398; 6His (N); made in house; host or cells: Sf9 insect cells, baculovirus system (BD Biosciences)
In words: Tpl2/Cot kinase assay: GST-MEK1 phosphorylation detected by ELISA (DELFIA Eu). To be noted: Tpl2/Cot kinase, GST-MEK1 substrate, 50 uM ATP, 1 h at 30° C.; Table 2. Type of test: biochemical. The gist of the method: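 Substrate phosphorylation (GST-MEK1 Ser217/221) quantified by DELFIA europium ELISA, yielding IC50 values. Reaction: 1 h at 30° C, pH 7.2 MOPS buffer, 50 uM ATP, 35 nM GST-MEK1, 0.4 nM monomeric His-Tpl2 purified from Sf9 cells, compounds at 1% final DMSO; stopped with EDTA.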
T1 sequence (P41279 30-398): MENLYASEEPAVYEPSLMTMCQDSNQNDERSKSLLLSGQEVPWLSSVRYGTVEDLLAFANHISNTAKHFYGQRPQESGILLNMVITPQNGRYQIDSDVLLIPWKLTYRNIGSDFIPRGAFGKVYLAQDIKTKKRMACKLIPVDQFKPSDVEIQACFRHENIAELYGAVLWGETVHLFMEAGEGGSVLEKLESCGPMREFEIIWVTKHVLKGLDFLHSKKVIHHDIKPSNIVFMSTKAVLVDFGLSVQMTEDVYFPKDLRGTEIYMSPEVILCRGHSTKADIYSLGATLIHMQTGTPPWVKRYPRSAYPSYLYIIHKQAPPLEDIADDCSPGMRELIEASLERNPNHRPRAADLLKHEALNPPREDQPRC
With `N#Cc1cnc2c(Cl)cc(NCc3cncc(C4(O)CCNCC4)c3)cc2c1Nc1ccc(F)c(Cl)c1` [Example 1032], the concentration for half-maximal inhibition (IC50) was greater than 3 µM.
The same measure, in the same setting: the result for `CC(C)N1CCC(O)(c2cncc(CNc3cc(Cl)c4ncc(C#N)c(Nc5ccc(F)c(Cl)c5)c4c3)c2)CC1` [Example 1033] reads 0.5 µM; that for `CCN1CCC(O)(c2cncc(CNc3cc(Cl)c4ncc(C#N)c(Nc5ccc(F)c(Cl)c5)c4c3)c2)CC1` [Example 1034], 0.4 µM; that for `CCNC1CCC(n2cc(CNc3cc(Cl)c4ncc(C#N)c(Nc5ccc(F)c(Cl)c5)c4c3)nn2)CC1` (stereo not shown) [Example 1035], 0.036 µM.
`CNC1CCC(n2cc(CNc3cc(Cl)c4ncc(C#N)c(Nc5ccc(F)c(Cl)c5)c4c3)nn2)CC1` (stereo not shown) [Example 1036] registered a half-inhibitory concentration (IC50) of 0.04 µM.
For `CC(C)NC1CCC(n2cc(CNc3cc(Cl)c4ncc(C#N)c(Nc5ccc(F)c(Cl)c5)c4c3)nn2)CC1` (stereo not shown) [Example 1037], it took 0.02 µM to reach half-maximal inhibition (IC50).
The compound `N#Cc1cnc2c(Cl)cc(NCc3cn(C4CCC(NC5CCCC5)CC4)nn3)cc2c1Nc1ccc(F)c(Cl)c1` (stereo not shown) [Example 1038] showed a half-inhibitory concentration (IC50) of 0.017 µM.
Consider `N#Cc1cnc2c(Cl)cc(NCc3cn(C4CCC(Nc5ccccn5)CC4)nn3)cc2c1Nc1ccc(F)c(Cl)c1` (stereo not shown) [Example 1039], for which 0.1 µM corresponded to half-maximal inhibition (IC50).
`N#Cc1cnc2c(Cl)cc(NCc3cn(C4CCC(NC5CC5)CC4)nn3)cc2c1Nc1ccc(F)c(Cl)c1` (stereo not shown) [Example 1040] showed an IC50 of 0.017 µM.
On the same count and under the same terms, the result for `N#Cc1cnc2c(Cl)cc(NCc3cn(C4CCC(O)CC4)nn3)cc2c1Nc1ccc(F)c(Cl)c1` (stereo not shown) [Example 1041] reads 0.0057 µM.
Regarding `N#Cc1cnc2c(Cl)cc(NCc3cn(CCc4cncc(C(O)(C(F)(F)F)C(F)(F)F)c4)nn3)cc2c1Nc1ccc(F)c(Cl)c1` [Example 1042], the concentration for half-maximal inhibition (IC50) was 0.13 µM.
Regarding `CN1C(C)(C)CC(n2cc(CNc3cc(Cl)c4ncc(C#N)c(Nc5ccc(F)c(Cl)c5)c4c3)nn2)CC1(C)C` [Example 1043], the IC50 was found to be 0.052 µM.
Regarding `CC(C)N1CCC(c2cc(CNc3cc(Br)c4ncc(C#N)c(Nc5ccc(F)c(Cl)c5)c4c3)[nH]n2)CC1` [Example 1044], 0.86 µM corresponded to half-maximal inhibition (IC50).
In turn, `CCN1CCC(c2cc(CNc3cc(Br)c4ncc(C#N)c(Nc5ccc(F)c(Cl)c5)c4c3)[nH]n2)CC1` [Example 1045] had an IC50 of 0.61 µM.
Same read-out and setting: the result for `CC(C)(C)OC(=O)N1C2CCC1CC(n1cc(CNc3cc(Cl)c4ncc(C#N)c(Nc5ccc(F)c(Cl)c5)c4c3)nn1)C2` (stereo not shown) [Example 1046] reads 0.3 µM; that for `N#Cc1cnc2c(Cl)cc(NCc3cncc(Br)c3)cc2c1Nc1ccc(F)c(Cl)c1` [Example 1047], 0.47 µM; that for `N#Cc1cnc2c(Cl)cc(NCc3cncc(C4(O)CCOCC4)c3)cc2c1Nc1ccc(F)c(Cl)c1` [Example 1048], 0.45 µM.
Compound `CC(C)N1C2CCC1CC(n1cc(CNc3cc(Cl)c4ncc(C#N)c(Nc5ccc(F)c(Cl)c5)c4c3)nn1)C2` (stereo not shown) [Example 1049] displayed an IC50 of 0.42 µM.
The same measure, in the same setting: the result for `CS(=O)(=O)N1C2CCC1CC(n1cc(CNc3cc(Cl)c4ncc(C#N)c(Nc5ccc(F)c(Cl)c5)c4c3)nn1)C2` (stereo not shown) [Example 1050] reads 0.046 µM; that for `CC(C)(C)OC(=O)N1CC=C(c2cncc(CNc3cc(Cl)c4ncc(C#N)c(Nc5ccc(F)c(Cl)c5)c4c3)c2)CC1` [Example 1051], greater than 3 µM; that for `CCNC(=O)N1C2CCC1CC(n1cc(CNc3cc(Cl)c4ncc(C#N)c(Nc5ccc(F)c(Cl)c5)c4c3)nn1)C2` (stereo not shown) [Example 1052], 0.023 µM.
Same read-out and setting: the result for `CC(=O)N1C2CCC1CC(n1cc(CNc3cc(Cl)c4ncc(C#N)c(Nc5ccc(F)c(Cl)c5)c4c3)nn1)C2` (stereo not shown) [Example 1053] reads 0.024 µM.
In turn, `CC(C)N1CC=C(c2cncc(CNc3cc(Cl)c4ncc(C#N)c(Nc5ccc(F)c(Cl)c5)c4c3)c2)CC1` [Example 1054] showed an IC50 of 1.3 µM.
`CCCN1C2CCC1CC(n1cc(CNc3cc(Cl)c4ncc(C#N)c(Nc5ccc(F)c(Cl)c5)c4c3)nn1)C2` (stereo not shown) [Example 1055] yielded a half-maximal inhibitory concentration (IC50) of 0.008 µM.
Same read-out and setting: the result for `N#Cc1cnc2c(Cl)cc(NCc3cncc(C4=CCNCC4)c3)cc2c1Nc1ccc(F)c(Cl)c1` [Example 1056] reads 0.88 µM; that for `N#Cc1cnc2c(Cl)cc(NCc3cn(C4CC5CCC(C4)N5CC4CC4)nn3)cc2c1Nc1ccc(F)c(Cl)c1` (stereo not shown) [Example 1057], 0.011 µM.
In turn, `CC(C)CN1C2CCC1CC(n1cc(CNc3cc(Cl)c4ncc(C#N)c(Nc5ccc(F)c(Cl)c5)c4c3)nn1)C2` (stereo not shown) [Example 1058] gave an IC50 of 0.07 µM.
As for `N#Cc1cnc2c(Cl)cc(NCc3cn(C4CC5CCC(C4)N5C=O)nn3)cc2c1Nc1ccc(F)c(Cl)c1` (stereo not shown) [Example 1059], it took 0.014 µM to reach half-maximal inhibition (IC50).
`CC1(O)CCC(n2cc(CNc3cc(Cl)c4ncc(C#N)c(Nc5ccc(F)c(Cl)c5)c4c3)nn2)CC1` (stereo not shown) [Example 1060] displayed an IC50 of 0.045 µM.
The compound `CC(C)N1CCC(c2cncc(CNc3cc(Cl)c4ncc(C#N)c(Nc5ccc(F)c(Cl)c5)c4c3)c2)CC1` [Example 1061] yielded an IC50 of 0.6 µM.

The target of the next test is Tpl2 (Homo sapiens, UniProt P41279).
Chain of Tpl2 (P41279 whole entry): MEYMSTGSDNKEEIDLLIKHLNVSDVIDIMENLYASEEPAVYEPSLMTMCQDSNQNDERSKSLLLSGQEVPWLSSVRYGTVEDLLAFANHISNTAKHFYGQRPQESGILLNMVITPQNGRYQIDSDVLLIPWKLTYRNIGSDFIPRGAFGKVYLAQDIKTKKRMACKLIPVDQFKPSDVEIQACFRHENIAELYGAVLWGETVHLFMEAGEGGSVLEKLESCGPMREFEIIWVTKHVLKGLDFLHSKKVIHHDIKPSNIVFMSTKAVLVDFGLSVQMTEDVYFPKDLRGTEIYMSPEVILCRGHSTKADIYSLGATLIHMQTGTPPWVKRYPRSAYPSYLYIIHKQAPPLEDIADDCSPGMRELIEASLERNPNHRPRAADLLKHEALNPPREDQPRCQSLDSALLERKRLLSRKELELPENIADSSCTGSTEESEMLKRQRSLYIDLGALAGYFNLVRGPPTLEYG
Test: not given
Conditions: background statement; cited from earlier work.
Consider `CN[C@@H]1C[C@H]2O[C@@](C)([C@@H]1OC)n1c3ccccc3c3c4c(c5c6ccccc6n2c5c31)C(=O)NC4` [staurosporine], for which the “inhibition of Tpl2” value was “not inhibited”.

The values above are taken from patent publication US20060264460A1 (Wyeth, priority 2005, published 2006).
